One assay concerns soil urease. Kind of assay: Inhibition of soil urease activity in incubated brown soil. The class given is biochemical. The procedure:
(1) Pre-culture of soil: air-dried soil (brown soil) is filtered by a 2 mm sieve and then placed in a culture dish, distilled water accounting for 15% of the weight of the dried soil is added, after the dried soil is uniformly and thoroughly immersed with water, the soil is pre-cultured for 2 weeks in a constant temperature incubator at a constant temperature of 25° C. to restore the biological activity of the soil, and ventilation and constant moisture are kept in the pre-culture period.
(2) The pre-cultured soil is weighed, and added with DMSO solutions of farnesene and acetohydroxamic acid respectively, the concentrations of the farnesene and acetohydroxamic acid are 50 mg/kg (calculated by the dried soil) respectively, and a farnesene-soil mixture and an acetohydroxamic acid-soil mixture are obtained. 5 g of farnesece-soil mixture and 5 g of acetohydroxamic acid-soil mixture are weighed respectively and placed into glass test tubes (length 15 cm×diameter 15 mm), then 5 mL of distilled water is added respectively into the test tubes to make the soil located below a liquid surface, the mixtures in the test tubes are shaken by a vortex shaker and uniformly mixed; and at the same time, the pre-cultured soil without the inhibitor is used as control treatment (CK) and cultured in the constant temperature incubator at a constant temperature of 25° C., and sampling is carried out respectively on the 1st day, the 7th day, 14th day and 28th day after the culture (water is supplemented every day according to a weight method so as to keep a total weight of the test tube constant) for determination of urease activity. […]

Assay [1] relates to soil urease-generating bacteria. Kind of assay: Inhibition of soil urease-generating bacteria (bacterial ureC gene copy number by quantitative PCR). The conditions noted are these: urea 200 mg N kg^-1 dry soil, farnesene 0.5%, 2% of pure nitrogen. The procedure: (1) Pre-culture of soil: air-dried soil (brown soil) is filtered by a 2 mm sieve and then placed in a culture dish, distilled water accounting for 15% of the weight of the dried soil is added, after the dried soil is uniformly and thoroughly immersed with water, the soil is pre-cultured for 2 weeks in a constant temperature incubator at 25° C. to restore the biological activity of the soil, and ventilation and constant moisture are kept in the pre-culture period, thereby obtaining the pre-cultured soil.
(2) The pre-cultured soil is weighed; urea is added according to a concentration of 200 mg N kg^−1 of dry soil; the farnesene is added according to concentrations of pure nitrogen of 0 (U), 0.5% (U+0.5%), 1% (U+1%) and 2% (U+2%); and at the same time, the pre-cultured soil without urea and farnescene is used as control treatment, and 5 treatments are carried out and repeated for 4 times. In each treatment, the required urea and farnesene are dissolved in a certain amount of deionized water according to a required amount, then the solution is uniformly mixed with the pre-cultured soil that is equivalent to 50 g of air-dried soil by a vacuum method, the water content of the soil is enabled to reach 60% of the field water holding capacity (WHC), and finally the solution is placed in a 150 mL centrifugal pipe with a cover. […]

Assay [2] deals with T1, Canavalia ensiformis urease (Canavalia ensiformis, UniProt P07374).
T1 construct: purchased Aladdin Company
It is filed as biochemical. Particulars: incubated 20 min at 37° C., HEPES pH 7.5; unit inferred; read-out: median inhibitory concentration (IC50) for inhibiting the activity of Canavalia ensiformis urease.
Procedure: Acetohydroxamic acid is weighed, and mixed with 20 mM of HEPES buffer solution (with pH of 7.5) to prepare an acetohydroxamic acid solution of 0.1 μM, 0.5 μM, 1 μM, 3 μM, 5 μM, 10 μM, 20 μM, 40 μM, 60 μM and 80 μM, and the solution is cold stored in a brown bottle in a refrigerator at 4° C. for standby use;
Canavalia ensiformis urease is weighed, and dissolved in 20 mM of HEPES buffer solution (with pH of 7.5) to prepare the Canavalia ensiformis urease solution with a concentration of 10 U/mL, and the prepared solution is cold stored in the refrigerator at 4° C. for standby use. […]
A. 50 μL of the above prepared farnesene solution with different concentrations is collected, added with 100 μL of Canavalia ensiformis urease solution respectively, and uniformly mixed to obtain mixed solutions, and the mixed solutions are incubated for 20 min at 37° C.; 100 μL of urea solution is added for light avoidance reaction for 20 min at a room temperature; the Berthelot developing solution A is added and uniformly mixed, and the Berthelot developing solution B is added for development for 10 min to obtain an incubation solution; and 250 μL of incubation solution is absorbed onto a 96-well plate, an OD absolute value at 595 nm is determined by a microplate reader, and three times of test are carried in parallel for each concentration. […]

A further assay relates to corns. Kind of assay: Pot experiment: combined application of farnesene and urea on growth of corns. It is filed as in vivo, corn. The conditions noted are these: potted corns; for Increase of dry weight / Yield increase: versus control without farnesene. From the text: Soil required for pot experiment is brown soil collected from Shenyang. 13 g of nitrogen phosphorus potassium fertilizer is used as base fertilizer to be applied in all layers according to a ratio of 26-10-12; and the fertilizer with farnescene and the fertilizer without farnescene are used as control, and the application amount is 0.5%, 1% and 5% of a pure nitrogen content in the fertilizer. Nitrogen fertilizer for test is urea, phosphorus fertilizer is calcium superphosphate, and potassium fertilizer is potassium sulfate. Each treatment is repeated for 5 times. The pretreated soil (filtered by a 5 mm sieve to remove stone pieces, roots, etc.) that is equivalent to 16 kg of air-dried oil is laid on square thick plastic paper with an edge length of 2 m, then the required fertilizer and inhibitor (if necessary) that are uniformly mixed in advance are applied uniformly to the soil, the paper is folded for multiple times by a diagonal folding method, in this period, it is necessary to lay the soil on the paper and then fold the paper, finally the soil is sufficiently and uniformly mixed with the fertilizer and inhibitor, the obtained mixture is transferred into a plastic pot (with a diameter of 28 cm and a height of 34 cm), and finally irrigation is carried out to make the water content of the soil reach 60% of the maximal field water holding capacity. Finally, a height about 5 cm is reserved between the soil surface and the top end of the pot. Three corn seeds are sowed in each pot in a sowing depth of 5 cm, and after the emergence (about 15 days), thinning is carried out to make each pot have one corn. Finally, all potted corns are carried onto a four-wheeled platform lorry and finally transferred into a net house. When in rainy days, the potted corns are transferred into a shed. The corns are watered manually every day in a growth period so as to maintain the soil moisture. The planting density is about 4000 corns per Mu, and a dry weight and yield of the corn are determined in autumn.

The mark [3] stands for this setting: farnesene 0.5% of pure nitrogen content in the fertilizer.
The mark [4] stands for this setting: farnesene 0.5% of pure nitrogen content.
[5] abbreviates: farnesene 1% of pure nitrogen content in the fertilizer.
Setting [6] is: farnesene 1% of pure nitrogen content.
Where [7] appears, read: farnesene 5% of pure nitrogen content in the fertilizer.
Setting [8] is: farnesene 5% of pure nitrogen content.

Experimental findings from patent US11851381B2, “Application of farnesene in preparing plant-derived urease inhibitor” (priority 2022, dated 2023) are described below.

T1 sequence (P07374 whole entry, looked up): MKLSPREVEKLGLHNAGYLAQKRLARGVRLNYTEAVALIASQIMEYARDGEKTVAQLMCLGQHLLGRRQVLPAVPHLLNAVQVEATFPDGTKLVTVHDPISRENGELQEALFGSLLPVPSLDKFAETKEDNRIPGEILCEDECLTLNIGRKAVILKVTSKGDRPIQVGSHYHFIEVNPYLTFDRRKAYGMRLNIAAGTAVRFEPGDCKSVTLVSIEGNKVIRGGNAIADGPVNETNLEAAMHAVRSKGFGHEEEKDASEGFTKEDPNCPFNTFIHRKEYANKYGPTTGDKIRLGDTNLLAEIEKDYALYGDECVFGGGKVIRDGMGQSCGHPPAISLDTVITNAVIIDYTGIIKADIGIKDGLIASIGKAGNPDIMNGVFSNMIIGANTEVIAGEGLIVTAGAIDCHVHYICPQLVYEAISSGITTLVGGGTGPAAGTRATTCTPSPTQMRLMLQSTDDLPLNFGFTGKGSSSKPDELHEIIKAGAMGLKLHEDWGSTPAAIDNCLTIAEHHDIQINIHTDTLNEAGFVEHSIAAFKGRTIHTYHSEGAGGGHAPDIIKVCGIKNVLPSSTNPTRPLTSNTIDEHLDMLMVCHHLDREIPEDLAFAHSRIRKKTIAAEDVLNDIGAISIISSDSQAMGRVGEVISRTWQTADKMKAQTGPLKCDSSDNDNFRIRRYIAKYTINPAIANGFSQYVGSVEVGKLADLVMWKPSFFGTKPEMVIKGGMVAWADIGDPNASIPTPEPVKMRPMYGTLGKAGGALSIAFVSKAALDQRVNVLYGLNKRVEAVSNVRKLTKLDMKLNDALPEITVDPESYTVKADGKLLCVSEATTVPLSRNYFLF

With farnesene, the “duration of the inhibition effect on soil urease” value in the assay with soil urease (50 mg/kg dried soil, brown soil, 25° C.) is given as 14 days. Further, the “inhibition of the activity of soil urease” value in the assay with soil urease (50 mg/kg dried soil, brown soil, 25° C., sampled day 1, 7, 14, 28) is “can effectively inhibit the activity of soil urease”. In the assay on soil urease (both at 50 mg/kg dried soil), the “inhibition effect on soil urease compared with acetohydroxamic acid” value was “equivalent to that of the commercial inhibitor acetohydroxamic acid”. In assay [1], the “duration of the inhibition effect on urease-generating bacteria” value stood at 14 days. Also, the “inhibition of the proliferation of urease-generating bacteria (copy number of bacterial ureC genes)” value in assay [1] (25° C.) is “can effectively inhibit the proliferation of the urease-generating bacteria”. In addition, in assay [2], the IC50 was found to be 10.3 ± 0.25 µM. Also, the Dry weight is 16006.3 kg ha^−1 in the assay on corns (setting [3]), 16922.8 kg ha^−1 with corns (setting [5]) and 17371.5 kg ha^−1 in the assay on corns (setting [7]). Besides, the results for the Yield in the assay with corns (setting [3]), in the assay on corns (setting [5]) and with corns (setting [7]) were 8004.2 kg ha^−1, 8521.3 kg ha^−1 and 8714.3 kg ha^−1, respectively. The figures for the “Increase of dry weight” value in the assay on corns (setting [4]), in the assay with corns (setting [6]) and in the assay on corns (setting [8]) were 4.1%, 8.6% and 10.2%, respectively. The Yield increase with corns (setting [4]) was determined as 4.5%; with corns (setting [6]) it was 10.1%; with corns (setting [8]), 12.2%.
